Results reported in publication PMC10527105, “Chirality Matters: Fine-Tuning of Novel Monoamine Reuptake Inhibitors Selectivity through Manipulation of Stereochemistry” (Biomolecules, 2023).
Values joined by “and” are separate entries in the source; they are usually repeats but may differ in a detail not shown here. Identical values can stand only once. Like-named read-outs stand apart in the source and are kept apart here.

Assays:
Format in all cases: cell-based
[1] = target: T1, human dopamine transporter/SLC6A3 (DAT) (Homo sapiens, UniProt Q01959); test: Cellular uptake experiments: [3H]-dopamine reuptake inhibition in transporter-expressing HEK293 cells; settings: for IC50: cells stably expressing DAT, [3H]-dopamine 1 µM, screening cut-off 50 µM; for activity on DAT (reuptake inhibition), in words: at 50 µM
T1 construct: expressed in transfected cells; host or cells: HEK293
Protocol: (§1) Cell culture. Human embryonic kidney (HEK) 293 or SK-N-MC (human neuroblastoma) cells were grown in minimum essential medium with Earle’s salts and L-glutamine, 10% heat-inactivated fetal bovine serum, and 50 mg/L gentamicin. Cells were grown in 100- or 60-mm diameter tissue culture dishes (polystyrene, Falcon) at 37 °C under an atmosphere of 5% CO2/95% air. The human dopamine transporter/SLC6A3 (DAT), noradrenaline transporter/SLC6A2 (NET), or human serotonin transporter/SLC6A4 (SERT) cDNA was stably expressed using methods as described previously.
(§2) Cellular uptake experiments. The transporter-expressing HEK293 cells were seeded in poly-D-lysine-coated 24-well plates (1 × 10^5 cells/well) and, one day later, each well was washed with 0.5 mL uptake buffer and incubated with 0.5 mL buffer containing various concentrations of the drugs. Uptake was started by the addition of [^3H]-dopamine, [^3H]-noradrenaline, or [^3H]-serotonin at a final concentration of 1 µM (specific activity 0.14 Ci/mmol) after 5 min of preincubation. After incubation for 2.5 min (SERT-cells: 5 min) at 25 °C, it was stopped by aspirating the uptake buffer and washing each well twice with 1 mL ice-cold buffer. Nonspecific uptake was determined in the presence of 10 µM mazindol (DAT- and NET-cells) or 10 µM clomipramine (SERT-cells). The radioactivity remaining in each well was determined by incubating with 0.4 mL 1% sodium dodecyl sulphate and transferring this solution into scintillation vials containing 3 mL of scintillation cocktail (Ultima Gold MV, Packard, Dovners Grove, IL, USA). The uptake buffer consisted of (mmol/L): 4 Tris–HCl; 6.25 4-(2-hydroxyethyl)-1-piperazineethanesulfonic acid (HEPES); 120 NaCl; 5 KCl; 1.2 CaCl2; 1.2 MgSO4; 5.6 D-glucose; 0.5 ascorbic acid; pH 7.1.

[2] = target: T2, human serotonin transporter/SLC6A4 (SERT) (Homo sapiens, UniProt P31645); test: Cellular uptake experiments: [3H]-serotonin reuptake inhibition in transporter-expressing HEK293 cells
T2 construct: expressed in transfected cells; host or cells: HEK293
Protocol: as §1, §2

[3] = target: T3, noradrenaline transporter/SLC6A2 (NET) (Homo sapiens, UniProt P23975); test: Cellular uptake experiments: [3H]-noradrenaline reuptake inhibition in transporter-expressing HEK293 cells
T3 construct: expressed in transfected cells; host or cells: HEK293
Protocol: as §1, §2

[4] = read-out: Reuptake Inhibition (IC50 ± SE, µM) DAT
[5] = cells stably expressing SERT; [3H]-serotonin 1 µM; screening cut-off 50 µM; read-out: Reuptake Inhibition (IC50 ± SE, µM) SERT
[6] = cells stably expressing NET; [3H]-noradrenaline 1 µM; screening cut-off 50 µM; read-out: Reuptake Inhibition (IC50 ± SE, µM) NET
[7] = Reuptake Inhibition (IC50 ± SE, µM) DAT
[8] = Reuptake Inhibition (IC50 ± SE, µM) SERT, cells stably expressing SERT; [3H]-serotonin 1 µM; screening cut-off 50 µM
[9] = Reuptake Inhibition (IC50 ± SE, µM) NET, cells stably expressing NET; [3H]-noradrenaline 1 µM; screening cut-off 50 µM
[10] = at 50 µM / tested concentration range
[11] = read-out: Reuptake Inhibition (IC50 ± SE, µM) SERT; cells stably expressing SERT; [3H]-serotonin 1 µM; screening cut-off 50 µM
[12] = read-out: Reuptake Inhibition (IC50 ± SE, µM) NET; cells stably expressing NET; [3H]-noradrenaline 1 µM; screening cut-off 50 µM

T1 sequence (Q01959 whole entry): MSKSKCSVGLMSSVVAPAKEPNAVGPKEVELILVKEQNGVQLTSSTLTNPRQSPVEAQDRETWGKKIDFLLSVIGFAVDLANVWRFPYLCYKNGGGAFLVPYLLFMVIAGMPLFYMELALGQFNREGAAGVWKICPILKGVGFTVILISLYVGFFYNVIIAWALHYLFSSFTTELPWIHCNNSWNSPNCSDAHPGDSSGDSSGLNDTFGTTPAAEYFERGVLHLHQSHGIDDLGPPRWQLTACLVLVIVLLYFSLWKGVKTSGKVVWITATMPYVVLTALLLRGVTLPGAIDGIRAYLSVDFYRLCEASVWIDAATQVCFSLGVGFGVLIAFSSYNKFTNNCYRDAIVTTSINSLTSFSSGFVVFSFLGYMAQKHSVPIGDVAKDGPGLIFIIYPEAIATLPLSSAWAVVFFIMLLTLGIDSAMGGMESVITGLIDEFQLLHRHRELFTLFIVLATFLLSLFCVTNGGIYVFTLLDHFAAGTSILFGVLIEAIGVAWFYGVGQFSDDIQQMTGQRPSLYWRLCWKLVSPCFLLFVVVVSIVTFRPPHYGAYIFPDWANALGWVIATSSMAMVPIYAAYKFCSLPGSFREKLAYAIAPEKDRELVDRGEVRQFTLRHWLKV
T3 sequence (P23975 whole entry): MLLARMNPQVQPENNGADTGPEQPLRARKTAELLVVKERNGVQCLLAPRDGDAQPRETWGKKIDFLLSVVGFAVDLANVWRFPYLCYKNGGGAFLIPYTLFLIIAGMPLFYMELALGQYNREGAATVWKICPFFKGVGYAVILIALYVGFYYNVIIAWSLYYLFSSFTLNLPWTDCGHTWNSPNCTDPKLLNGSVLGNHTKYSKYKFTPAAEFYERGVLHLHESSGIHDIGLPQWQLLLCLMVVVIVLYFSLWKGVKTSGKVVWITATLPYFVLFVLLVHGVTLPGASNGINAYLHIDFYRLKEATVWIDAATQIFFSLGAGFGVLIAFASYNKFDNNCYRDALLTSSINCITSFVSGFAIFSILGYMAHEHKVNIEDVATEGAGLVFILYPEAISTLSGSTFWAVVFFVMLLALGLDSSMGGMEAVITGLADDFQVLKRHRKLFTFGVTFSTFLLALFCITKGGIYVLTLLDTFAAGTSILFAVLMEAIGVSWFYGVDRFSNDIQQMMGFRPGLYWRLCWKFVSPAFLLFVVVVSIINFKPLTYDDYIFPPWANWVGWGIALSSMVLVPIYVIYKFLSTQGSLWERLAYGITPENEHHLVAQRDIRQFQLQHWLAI
T2 sequence (P31645 whole entry): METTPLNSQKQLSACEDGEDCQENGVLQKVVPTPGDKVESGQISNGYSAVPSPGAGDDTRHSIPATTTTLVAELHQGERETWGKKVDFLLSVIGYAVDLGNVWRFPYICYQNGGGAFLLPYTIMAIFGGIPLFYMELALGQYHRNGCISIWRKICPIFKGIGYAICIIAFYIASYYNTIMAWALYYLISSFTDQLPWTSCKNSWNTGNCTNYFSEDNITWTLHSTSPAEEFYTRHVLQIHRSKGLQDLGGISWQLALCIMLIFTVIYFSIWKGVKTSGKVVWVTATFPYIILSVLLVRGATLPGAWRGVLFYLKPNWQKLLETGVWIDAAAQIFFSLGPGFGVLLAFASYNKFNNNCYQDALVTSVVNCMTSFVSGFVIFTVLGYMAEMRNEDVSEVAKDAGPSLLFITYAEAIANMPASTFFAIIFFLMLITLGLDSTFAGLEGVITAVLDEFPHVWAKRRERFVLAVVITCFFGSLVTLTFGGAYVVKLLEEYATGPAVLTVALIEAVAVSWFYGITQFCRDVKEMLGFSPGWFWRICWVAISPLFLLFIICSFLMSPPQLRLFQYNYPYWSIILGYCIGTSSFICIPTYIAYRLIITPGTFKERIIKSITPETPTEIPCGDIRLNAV

With `[O-][S+](Cc1cccs1)C(c1ccccc1)c1cccc(F)c1` (stereo not drawn) [Compound 7b, 2-((((3-fluorophenyl)(phenyl)methyl)sulfinyl)methyl)thiophene] the IC50 [1, 4] was 2.3 ± 0.2 µM, the IC50 [2, 5] was greater than 50 µM and the IC50 [3, 6] was greater than 50 µM.

With `COc1ccccc1C(c1ccccc1)[S+]([O-])Cc1cccs1` [Compound 8r, (S,S)-2-((((2-methoxyphenyl)(phenyl)methyl)sulfinyl)methyl)thiophene] the IC50 [1, 7] was greater than 50 µM, the IC50 [2, 8] was greater than 50 µM and the IC50 [3, 9] was greater than 50 µM.

Work on `Cc1ccccc1C(c1ccccc1)[S+]([O-])Cc1cccs1` (stereo not drawn) [Compound 8l, 2-(((phenyl(o-tolyl)methyl)sulfinyl)methyl)thiophene] yielded an IC50 [1, 4] of 9.5 ± 0.9 µM, an IC50 [2, 5] greater than 50 µM and an IC50 [3, 6] greater than 50 µM.

In the case of `[O-][S+](Cc1cccs1)C(c1ccccc1)c1ccccc1Br` (stereo not drawn) [Compound 7g, 2-((((2-bromophenyl)(phenyl)methyl)sulfinyl)methyl)thiophene], the IC50 [1, 7] is reported as greater than 50 µM, the “activity on DAT (reuptake inhibition), in words” value [1] is reported as “no effect” and the “activity on SERT (reuptake inhibition), in words” value [2, 10] is reported as “no effect”. For the same compound, the IC50 [2, 11] was greater than 50 µM, the “activity on NET (reuptake inhibition), in words” value [3, 10] was “no effect” and the IC50 [3, 12] was greater than 50 µM.

Compound `[O-][S+](Cc1cccs1)C(c1ccccc1)c1cccc(F)c1` (stereo not drawn) [Compound 6b, 2-((((3-fluorophenyl)(phenyl)methyl)sulfinyl)methyl)thiophene] has an IC50 [1, 4] of 28 ± 7 µM, an IC50 [2, 5] greater than 50 µM and an IC50 [3, 6] greater than 50 µM.

For `[O-][S@+](Cc1cccs1)[C@H](c1ccccc1)c1ccc(I)cc1` [Compound 8k, (R,R)-2-((((4-iodophenyl)(phenyl)methyl)sulfinyl)methyl)thiophene], the IC50 [1, 7] was 2.6 ± 0.1 µM, the IC50 [2, 8] was greater than 50 µM and the IC50 [3, 9] was greater than 50 µM.

`[O-][S+](Cc1cccs1)C(c1ccccc1)c1ccc(C(F)(F)F)cc1` (stereo not drawn) [Compound 6q, 2-(((phenyl(4-(trifluoromethyl)phenyl)methyl)sulfinyl)methyl)thiophene] showed an IC50 [1, 7] of 40 ± 9 µM, an IC50 [2, 8] greater than 50 µM and an IC50 [3, 12] greater than 50 µM.

`Cc1cccc([C@H](c2ccccc2)[S@+]([O-])Cc2cccs2)c1` [Compound 6m, (R,S)-2-(((phenyl(m-tolyl)methyl)sulfinyl)methyl)thiophene] gave an IC50 [1, 7] greater than 50 µM, an IC50 [2, 8] greater than 50 µM and an IC50 [3, 9] greater than 50 µM.

`[O-][S@@+](Cc1cccs1)[C@@H](c1ccccc1)c1cccc(Cl)c1` [Compound 7e, (S,S)-2-((((3-chlorophenyl)(phenyl)methyl)sulfinyl)methyl)thiophene] gave an IC50 [1, 7] of 0.63 ± 0.17 µM, an IC50 [2, 8] greater than 50 µM and an IC50 [3, 9] of 29 ± 4 µM.

For `[O-][S@@+](Cc1cccs1)[C@@H](c1ccccc1)c1ccccc1F` [Compound 6a, (S,S)-2-((((2-fluorophenyl)(phenyl)methyl)sulfinyl)methyl)thiophene], the IC50 [1, 4] was 13.3 ± 1.6 µM, the IC50 [2, 5] was greater than 50 µM and the IC50 [3, 6] was greater than 50 µM.

`Cc1ccccc1C(c1ccccc1)[S+]([O-])Cc1cccs1` (stereo not drawn) [Compound 7l, 2-(((phenyl(o-tolyl)methyl)sulfinyl)methyl)thiophene] gave an IC50 [1, 4] of 3.8 ± 0.5 µM, an IC50 [2, 5] greater than 50 µM and an IC50 [3, 6] greater than 50 µM.

`Cc1ccc([C@H](c2ccccc2)[S@@+]([O-])Cc2cccs2)cc1` [Compound 7n, (S,S)-2-(((phenyl(p-tolyl)methyl)sulfinyl)methyl)thiophene] gave an IC50 [1, 4] of 1.63 ± 0.1 µM, an IC50 [2, 5] greater than 50 µM and an IC50 [3, 9] greater than 50 µM.

With `COc1ccc([C@@H](c2ccccc2)[S@+]([O-])Cc2cccs2)cc1` [Compound 6t, (R,R)-2-((((4-methoxyphenyl)(phenyl)methyl)sulfinyl)methyl)thiophene] the IC50 [1, 7] was 17 ± 3 µM, the IC50 [2, 8] was 11 ± 3 µM and the IC50 [3, 9] was greater than 50 µM.

Work on `[O-][S@@+](Cc1cccs1)[C@@H](c1ccccc1)c1ccc(Cl)cc1` [Compound 7f, (S,S)-2-((((4-chlorophenyl)(phenyl)methyl)sulfinyl)methyl)thiophene] yielded an IC50 [1, 7] of 4 ± 1 µM, an IC50 [2, 8] greater than 50 µM and an IC50 [3, 9] greater than 50 µM.

For `[O-][S+](Cc1cccs1)C(c1ccccc1)c1ccccc1I` (stereo not drawn) [Compound 7i, 2-((((2-iodophenyl)(phenyl)methyl)sulfinyl)methyl)thiophene], the IC50 [1, 7] was 28.4 ± 2.8 µM, the IC50 [2, 11] was greater than 50 µM and the IC50 [3, 12] was greater than 50 µM.

For `Cc1ccc(C(c2ccccc2)[S+]([O-])Cc2cccs2)cc1` (stereo not drawn) [Compound 6n, 2-(((phenyl(p-tolyl)methyl)sulfinyl)methyl)thiophene], the IC50 [1, 4] was greater than 50 µM, the IC50 [2, 5] was greater than 50 µM and the IC50 [3, 12] was greater than 50 µM.

Compound `[O-][S+](Cc1cccs1)C(c1ccccc1)c1cccc(F)c1` (stereo not drawn) [Compound 5b, 2-((((3-fluorophenyl)(phenyl)methyl)sulfinyl)methyl)thiophene] has an IC50 [1, 4] of 3.2 ± 0.4 µM, an IC50 [2, 5] greater than 50 µM and an IC50 [3, 6] greater than 50 µM.

Work on `[O-][S+](Cc1cccs1)C(c1ccccc1)c1ccccc1I` (stereo not drawn) [Compound 5i, 2-((((2-iodophenyl)(phenyl)methyl)sulfinyl)methyl)thiophene] yielded an IC50 [1, 7] greater than 50 µM, an IC50 [2, 8] greater than 50 µM and an IC50 [3, 9] greater than 50 µM.

In the case of `[O-][S@+](Cc1cccs1)[C@@H](c1ccccc1)c1ccccc1Cl` [Compound 7d, (R,S)-2-((((2-chlorophenyl)(phenyl)methyl)sulfinyl)methyl)thiophene], the “activity on DAT (reuptake inhibition), in words” value [1] is reported as “did not achieve ≥50% of radioligand displacement”, the IC50 [1, 4] is reported as greater than 50 µM and the “activity on SERT (reuptake inhibition), in words” value [2, 10] is reported as “did not achieve ≥50% of radioligand displacement”. The IC50 [2, 5] was greater than 50 µM, the “activity on NET (reuptake inhibition), in words” value [3, 10] was “did not achieve ≥50% of radioligand displacement” and the IC50 [3, 6] was greater than 50 µM.

`Cc1cccc([C@@H](c2ccccc2)[S@@+]([O-])Cc2cccs2)c1` [Compound 5m, (S,R)-2-(((phenyl(m-tolyl)methyl)sulfinyl)methyl)thiophene] was tested, and the IC50 [1, 7] was 2.2 ± 0.4 µM, the IC50 [2, 8] was greater than 50 µM and the IC50 [3, 9] was greater than 50 µM.

`[O-][S+](Cc1cccs1)C(c1ccccc1)c1ccccc1Br` (stereo not drawn) [Compound 6g, 2-((((2-bromophenyl)(phenyl)methyl)sulfinyl)methyl)thiophene] was tested, and the IC50 [1, 7] was 12.1 ± 1 µM, the IC50 [2, 11] was greater than 50 µM and the IC50 [3, 12] was greater than 50 µM.

`[O-][S+](Cc1cccs1)C(c1ccccc1)c1ccccc1C(F)(F)F` (stereo not drawn) [Compound 8o, 2-(((phenyl(2-(trifluoromethyl)phenyl)methyl)sulfinyl)methyl)thiophene] was tested, and the IC50 [1, 7] was 8.9 ± 0.7 µM, the IC50 [2, 11] was greater than 50 µM and the IC50 [3, 9] was greater than 50 µM.

`[O-][S@+](Cc1cccs1)[C@H](c1ccccc1)c1cccc(Cl)c1` [Compound 8e, (R,R)-2-((((3-chlorophenyl)(phenyl)methyl)sulfinyl)methyl)thiophene] showed an IC50 [1, 7] of 0.83 ± 0.16 µM, an IC50 [2, 8] of 19 ± 1 µM and an IC50 [3, 9] of 48 ± 6 µM.

`COc1ccc([C@H](c2ccccc2)[S@+]([O-])Cc2cccs2)cc1` [Compound 8t, (R,S)-2-((((4-methoxyphenyl)(phenyl)methyl)sulfinyl)methyl)thiophene] showed an IC50 [1, 7] greater than 50 µM, an IC50 [2, 8] greater than 50 µM and an IC50 [3, 9] greater than 50 µM.

`[O-][S@+](Cc1cccs1)[C@@H](c1ccccc1)c1cccc(Cl)c1` [Compound 6e, (R,S)-2-((((3-chlorophenyl)(phenyl)methyl)sulfinyl)methyl)thiophene] showed an IC50 [1, 7] of 14.1 ± 0.5 µM, an IC50 [2, 8] greater than 50 µM and an IC50 [3, 9] greater than 50 µM.

For `Cc1ccc([C@@H](c2ccccc2)[S@+]([O-])Cc2cccs2)cc1` [Compound 8n, (R,R)-2-(((phenyl(p-tolyl)methyl)sulfinyl)methyl)thiophene], the IC50 [1, 4] was 4 µM and 4.01 µM, the IC50 [2, 5] was 25 ± 4 µM and the IC50 [3, 9] was greater than 50 µM.

Compound `[O-][S@+](Cc1cccs1)[C@@H](c1ccccc1)c1ccccc1F` [Compound 7a, (R,S)-2-((((2-fluorophenyl)(phenyl)methyl)sulfinyl)methyl)thiophene] has an IC50 [1, 4] of 8.25 ± 0.16 µM, an IC50 [2, 5] greater than 50 µM and an IC50 [3, 6] greater than 50 µM.

In the case of `[O-][S+](Cc1cccs1)C(c1ccccc1)c1cccc(I)c1` (stereo not drawn) [Compound 8j, 2-((((3-iodophenyl)(phenyl)methyl)sulfinyl)methyl)thiophene], the IC50 [1, 7] is reported as 1.5 ± 0.17 µM, the IC50 [2, 11] is reported as greater than 50 µM and the IC50 [3, 12] is reported as greater than 50 µM.
